{
  "source": "patent US8445539B2",
  "about": "“Alpha-aminoamide derivatives useful in the treatment of psychiatric disorders” (priority 2007, dated 2013)",
  "key": {"[1]": {"system": "MK-801-induced PPI disruption", "assay": "Prepulse inhibition of startle with disruption by MK-801", "type": "in vivo, Wistar rats", "settings": "for Percentage of inhibition: % PPI; for Percentage of inhibition / Acoustic tone alone / Startle amplitude on prepulse + pulse trials: pretreatment ralfinamide methanesulfonate 90 mg/kg oral, mean ± SEM; for Acoustic tone alone / Startle amplitude on prepulse + pulse trials: startle amplitude", "excerpt": "Prepulse inhibition (PPI) is a cross-species phenomenon (i.e., it is present in mammals ranging from mice to humans), yet it is relatively impaired among schizophrenic patients. The PPI procedure is used to assess the subject's ability to “gate” or filter environmental information. In the acoustic (startle model) of sensorimotor gating a weak acoustic stimulus (prepulse) decrease the reflexive flinching response (startle) produced by a second, more intense, stimulus (the pulse). Drugs like dizocilpine (MK-801) or amphetamine disrupt PPI and represent an animal model of schizophrenia; antipsychotic drugs are able to prevent PPI deficit. The test is quite useful to screen potential antipsychotic drugs.\nMethods: Male Wistar rats, weighing 200-300 g were used. Apparatus: All startle and PPI testing has been performed in four startle chambers. Each ventilated illuminated and sound proof chamber contained a clear non-restrictive Plexiglas cylinder resting on a platform. A high-frequency loudspeaker inside the chamber produced both a continuous background noise of 70 dB and the various acoustic stimuli. Vibrations of the Plexiglas cylinder caused by the whole-body startle response of the animal were transduced into analogue signals by a piezoelectric unit attached to the platform. These signals were then digitized and stored by a computer. Sixty-five readings were taken at 1-ms intervals starting at stimulus onset, and the average amplitude was used to determine the acoustic startle response. Sound levels is given in dB.\nPrepulse inhibition session: After 5 min of habituation (background white noise, 70 dB), two types of acoustic stimuli were used: acoustic stimulus alone (120 dB, 40 ms) or the stimulus proceeded by a prepulse (76, 79, 82 dB, 40 ms) applied 100 ms before the stimulus. During each experimental session 20 trials of each type were presented with interstimulus interval of 20 s. The amplitudes were averaged for each individual animal, separately for both types of trials (stimulus alone or stimulus preceded by the prepulse). The degree of prepulse inhibition was shown as a percentage score (% PPI) calculated as […] a difference between the amplitude of the pulse-alone (P) and the amplitude of the prepulse+pulse trials (PP+P), divided by the amplitude of the pulse-alone trials and multiplied by 100. […] Substances and treatments: MK-801 0.2 mg/kg was dissolved in saline and was given i.p. In each experiment, […] were assigned to receive either compounds of the disclosure or vehicle and were tested in the PPI session using a between-subjects design. The order of drug treatment for the first experiment was test-compound, followed by MK-801; for the second experiment rats received test-compound and then amphetamine. Statistical Analysis: Multiple ANOVA was conducted followed by Dunnett's post hoc test."}, "[2]": {"system": "MK-801 induced hyperlocomotion", "assay": "MK-801 induced hyperlocomotion in mice", "type": "in vivo", "settings": "MK-801 induced locomotion in mice", "experimental": "Glutamate N-methyl-D-aspartate (NMDA) receptor antagonists, like phencyclidine (PCP) or MK-801, elicit schizophrenia-like symptoms in humans and behavioural abnormalities in animals, such as hyperactivity. Atypical antipsychotics decrease hyperlocomotion produced in mice by MK-801 or PCP and this represents a commonly used animal models predictive of efficacy against the symptoms of schizophrenia. Vehicle or compound was injected 30-35 min before the animal entered the activity chambers. Hyperlocomotion was produced in mice by administration of MK-801 (0.3 mg/kg) 15 min before the animal entered the activity chambers (i.e., […] min after vehicle or compound administration) and the total distance traveled in centimeters was determined during a 15-30 min session. The increase in MK-801-induced total distance traveled were attenuated by active compounds."}, "marble burying behaviour": {"system": "marble burying behaviour", "assay": "Marble Burying test", "type": "in vivo", "settings": "80 mg/kg po; 30 min before test; CD1 mice; FIG. 1", "excerpt": "The Marble Burying Test is considered an animal model of anxiety/obsessive-compulsive disorder (OCD). Mice which are placed individually in a cage containing a number of glass marbles spontaneously tend to bury the glass marbles present.\nSeveral compounds which attenuate anxiety, depression, psychosis or obsessive-compulsive disorders affect this behaviour reducing the number of marbles buried. Therefore the test has predictive validity for anti-anxiety and anti-OCD potential compounds.\nCD1 mice were injected with ralfinamide at the doses of 10, 30, 60 and 80 mg/kg, po; fluoxetine (FLX) at 10 mg/kg, sc or saline and returned to their home cage. After 30 min (ralfinamide) or 60 min (fluoxetine), mice were individually placed in a new cage contained 12 evenly spaced glass marbles. After 30 min mice were removed from the cages and the number of glasses buried for at least two-thirds in the sawdust was counted.\nOne-way ANOVA followed by Bonferroni's multiple comparison test; n=6-8 mice per group *p<0.05; p***<0.001 versus control group"}, "[3]": {"system": "d-amphetamine-induced PPI impairment", "assay": "Amphetamine-induced PPI deficit (ralfinamide and haloperidol association)", "type": "in vivo", "settings": "ralfinamide methanesulfonate per se 60 mg/kg p.o.; d-amphetamine 2.5 mg/kg s.c.; rats", "experimental": "A PPI test, carried out according to the method described in Example 4, was performed in rats."}, "[4]": {"system": "anxiety-like behaviour in Open Field", "assay": "Anxiety open field test", "type": "in vivo", "settings": "open field test in rats", "excerpt": "The Open Field test is commonly used to assess locomotor, exploratory and anxiety-like behaviour in rats or mice. This test is particularly useful in evaluating the effects of anxiolytic and anxiogenic drugs, locomotor responses to drug and as well as behavioural responses to novelty.\nThe Open Field test task approaches the conflict between the innate fear that rats have of the central area of a novel or brightly lit open field versus their desire to explore new environments. When anxious, the natural tendency of rodents is to prefer staying closed to the walls (thigmotaxis). In this context, anxiety-related behaviour is measured by the degree to which the rat avoids the center of the Open Field test.\nThe Open Field arena consists of an empty and bright square arena surrounded by walls to prevent animal from escaping. The arena (90 cm×90 cm×40 cm height) was divided into 6×6 grid of equally-sized squares using black tape. […]\nThe rat is placed in the center of the arena and its behaviour recorded on video over a chosen period (from 5 to 15 min) and scored.\nTime spent in each category of square is recorded. In addition, the fifteen minute open-field test is divided into 3 blocks of 5 minutes and total locomotor activity is scored as the number of square entries in each five minute block. […] Finally, the latency to visit the large centre and any one of the four corners is scored manually. […]"}, "[5]": {"settings": "treatment MK-801 0.2 mg/kg i.p."}},
  "data": [
    {"smiles": "C[C@H](NCc1ccc(OCc2ccccc2F)cc1)C(N)=O", "note": "[Ralfinamide methanesulfonate, (S)-(+)-2-[4-(2-fluorobenzyloxy)benzylamino]propanamide]", "values": [
      {"measurement": "Percentage of inhibition", "setting": "[1]; [5]", "value": "21.92 ± 0.40", "unit": "%"},
      {"measurement": "Percentage of inhibition", "setting": "[1]; treatment vehicle", "value": "44.16 ± 3.54", "unit": "%"},
      {"measurement": "Reversing the disruptive effect of MK-801 on PPI", "setting": "[1]; orally, 90 mg/kg", "value": "active"},
      {"measurement": "Acoustic tone alone", "setting": "[1]; [5]", "value": "38.50 ± 1.36"},
      {"measurement": "Startle amplitude on prepulse + pulse trials", "setting": "[1]; [5]", "value": "30.00 ± 0.90"},
      {"measurement": "Acoustic tone alone", "setting": "[1]; treatment vehicle", "value": "35.50 ± 0.45"},
      {"measurement": "Startle amplitude on prepulse + pulse trials", "setting": "[1]; treatment vehicle", "value": "20.00 ± 1.51"},
      {"measurement": "Activity in schizophrenia animal model (Example 5)", "setting": "[2]", "value": "active"},
      {"measurement": "Number of buried marbles", "setting": "marble burying behaviour", "value": "significantly reduces"},
      {"measurement": "Reversal of PPI impairment induced by d-amphetamine", "setting": "[3]", "value": "did not reverse"},
      {"measurement": "Activity in anxiety animal model (Example 6)", "setting": "[4]", "value": "active"}
    ]}
  ]
}
